Among the data in patent US7897592B2, “HIV integrase inhibitors” (priority 2005, dated 2011) are IC50 values, retold here.

Each structure is given as a SMILES string.

This test addresses T1, HIV-integrase (recombinant integrase) (Human immunodeficiency virus type 1 group M subtype B, UniProt P12497).
T1 construct: Recombinant integrase (0.26 ng) was incubated with the beads
Kind of test: HIV-Integrase Inhibition Activity (SPA bead strand-transfer assay). As to conditions: biotin labeled substrate DNA on SPA beads, P33 labeled target DNA, read-out: Activity (IC50 against HIV-integrase). It counts as biochemical. How it is done: HIV-Integrase Inhibition Activity. To evaluate in-vitro activity against HIV-integrase, 5 pmole of biotin labeled substrate DNA was bound to 100 μg of Streptavidin coated PVT SPA beads (Amersham Pharmacia Biotech). Recombinant integrase (0.26 ng) was incubated with the beads for 90 min at 37° C. Unbound enzyme was removed by washing the complex followed by addition of inhibitors and 0.1 fmol of P33 labeled target DNA. The reaction was stopped by adding EDTA to a final concentration of 10 mM. Samples were counted in TopCountNXT (Packard) and the CPM was used as a measure of integration. The reaction condition was as described in A. Engelman and R. Craigie, J. Virol. 69, 5908-5911 (1995). The sequences of substrate and target DNA were described in Nucleic Acid Research 22, 1121-1122 (1994). Activity equal to A refers to a compound having IC50=0.002 to 0.10 μM while B and C denote compounds having IC50=0.1 to 1.0 μM and IC50≧1.0 μM respectively.
On to `O=C(NCc1ccc(F)cc1)c1nc2n(c(=O)c1O)CCCSC2` [Example 19, N-(4-Fluorobenzyl)-3-hydroxy-4-oxo-6,7,8,10-tetrahydro-4H-pyrimido[2,1-c][1,4]thiazepine-2-carboxamide], for which the IC50 was in the range of 2 to 100 nM.

`O=C(NCc1ccc(F)cc1-n1cncn1)c1nc2n(c(=O)c1O)CCS(=O)(=O)C21CCOCC1` [Example 17, Spiro[4H-pyran-4,9′(4′H)-pyrimido[2,1-c][1,4]thiazine]-2′-carboxamide, N-[[4-fluoro-2-(1H-1,2,4-triazol-1-yl)phenyl]methyl]-2,3,5,6,6′,7′-hexahydro-3′-hydroxy-4′-oxo-, 8′,8′-dioxide]: the IC50 is 2 to 100 nM.

`O=C(NCc1ccc(F)cc1)c1nc2n(c(=O)c1O)CCCS(=O)(=O)C2` [Example 21, 6H-Pyrimido[2,1-c][1,4]thiazepine-2-carboxamide, N-[(4-fluorophenyl)methyl]-4,7,8,10-tetrahydro-3-hydroxy-4-oxo-, 9,9-dioxide]: the IC50 lay within 2 to 100 nM.

`O=C(NCc1ccc(F)cc1)c1nc2n(c(=O)c1O)CCS(=O)(=O)C21CC1` [Example 8, Spiro[cyclopropane-1,9′(4′H)-pyrimido[2,1-c][1,4]thiazine]-2′-carboxamide, N-[(4-fluorophenyl)methyl]-6′,7′-dihydro-3′-hydroxy-4′-oxo-, 8′,8′-dioxide]: the IC50 was in the range of 2 to 100 nM.

For the compound `O=C(NCc1ccc(F)cc1-n1cncn1)c1nc2n(c(=O)c1O)CCCS(=O)(=O)C21CCOCC1` [Example 28, Spiro[4H-pyran-4,10′(4′H)-[6H]pyrimido[2,1-c][1,4]thiazepine]-2′-carboxamide, N-[[4-fluoro-2-(1H-1,2,4-triazol-1-yl)phenyl]methyl]-2,3,5,6,7′,8′-hexahydro-3′-hydroxy-4′-oxo-, 9′,9′-dioxide], the IC50 is 2 to 100 nM.

With `O=C(NCc1ccc(F)cc1-n1cncn1)c1nc2n(c(=O)c1O)CCS(=O)(=O)C21CC1` [Example 9, Spiro[cyclopropane-1,9′(4′H)-pyrimido[2,1-c][1,4]thiazine]-2′-carboxamide, N-[[4-fluoro-2-(1H-1,2,4-triazol-1-yl)phenyl]methyl]-6′,7′-dihydro-3′-hydroxy-4′-oxo-, 8′,8′-dioxide], the half-maximal inhibitory concentration (IC50) fell in the range of 2 to 100 nM.

Turning to `Cc1ncn(-c2cc(F)ccc2CNC(=O)c2nc3n(c(=O)c2O)CCS(=O)(=O)C32CC2)n1` [Example 10, Spiro[cyclopropane-1,9′(4′H)-pyrimido[2,1-c][1,4]thiazine]-2′-carboxamide, N-[[4-fluoro-2-(3-methyl-1H-1,2,4-triazol-1-yl)phenyl]methyl]-6′,7′-dihydro-3′-hydroxy-4′-oxo-, 8′,8′-dioxide], the half-maximal inhibitory concentration (IC50) lay within 2 to 100 nM.

As to `O=C(NCc1ccc(F)cc1)c1nc2n(c(=O)c1O)CCCS(=O)(=O)C21CC1` [Example 24, Spiro[cyclopropane-1,10′(4′H)-[6H]pyrimido[2,1-c][1,4]thiazepine]-2′-carboxamide, N-[(4-fluorophenyl)methyl]-7′,8′-dihydro-3′-hydroxy-4′-oxo-, 9′,9′-dioxide], the IC50 is 2 to 100 nM.

`Cc1ncn(-c2cc(F)ccc2CNC(=O)c2nc3n(c(=O)c2O)CCS(=O)(=O)C32CCCC2)n1` [Example 14, Spiro[cyclopentane-1,9′(4′H)-pyrimido[2,1-c][1,4]thiazine]-2′-carboxamide, N-[[4-fluoro-2-(3-methyl-1H-1,2,4-triazol-1-yl)phenyl]methyl]-6′,7′-dihydro-3′-hydroxy-4′-oxo-, 8′,8′-dioxide]: the IC50 was in the range of 2 to 100 nM.

As for `O=C(NCc1ccc(F)cc1)c1nc2n(c(=O)c1O)CCCS(=O)(=O)C21CCOCC1` [Example 26, Spiro[4H-pyran-4,10′(4′H)-[6H]pyrimido[2,1-c][1,4]thiazepine]-2′-carboxamide, N-[(4-fluorophenyl)methyl]-2,3,5,6,7′,8′-hexahydro-3′-hydroxy-4′-oxo-, 9′,9′-dioxide], the IC50 fell in the range of 2 to 100 nM.

In the case of `O=C(NCc1ccc(F)cc1)c1nc2n(c(=O)c1O)CCSC2` [Example 1, N-(4-fluorobenzyl)-3-hydroxy-4-oxo-4,6,7,9-tetrahydropyrimido[2,1-c][1,4]thiazine-2-carboxamide], the IC50 was in the range of 2 to 100 nM.

As to `CC1c2nc(C(=O)NCc3ccc(F)cc3)c(O)c(=O)n2CCCS1(=O)=O` (stereo not shown) [Example 22, 6H-Pyrimido[2,1-c][1,4]thiazepine-2-carboxamide, N-[(4-fluorophenyl)methyl]-4,7,8,10-tetrahydro-3-hydroxy-10-methyl-4-oxo-, 9,9-dioxide], the half-maximal inhibitory concentration (IC50) fell in the range of 2 to 100 nM.

On to `O=C(NCc1ccc(F)cc1)c1nc2n(c(=O)c1O)CCS(=O)(=O)C2` [Example 2, Pyrimido[2,1-c][1,4]thiazine-2-carboxamide, N-[(4-fluorophenyl)methyl]-4,6,7,9-tetrahydro-3-hydroxy-4-oxo-, 8,8-dioxide], for which the IC50 lay in the range of 100 to 1000 nM.

Turning to `CC1(C)c2nc(C(=O)NCc3ccc(F)cc3-n3cncn3)c(O)c(=O)n2CCS1(=O)=O` [Example 5, Pyrimido[2,1-c][1,4]thiazine-2-carboxamide, N-[[4-fluoro-2-(1H-1,2,4-triazol-1-yl)phenyl]methyl]-4,6,7,9-tetrahydro-3-hydroxy-9,9-dimethyl-4-oxo-, 8,8-dioxide], the IC50 fell in the range of 2 to 100 nM.

As for `CC1(C)c2nc(C(=O)NCc3ccc(F)cc3)c(O)c(=O)n2CCCS1(=O)=O` [Example 23, 6H-Pyrimido[2,1-c][1,4]thiazepine-2-carboxamide, N-[(4-fluorophenyl)methyl]-4,7,8,10-tetrahydro-3-hydroxy-10,10-dimethyl-4-oxo-, 9,9-dioxide], the half-maximal inhibitory concentration (IC50) was in the range of 2 to 100 nM.

For `CC1(C)c2nc(C(=O)NCc3ccc(F)cc3)c(O)c(=O)n2CCS1(=O)=O` [Example 4, Pyrimido[2,1-c][1,4]thiazine-2-carboxamide, N-[(4-fluorophenyl)methyl]-4,6,7,9-tetrahydro-3-hydroxy-9,9-dimethyl-4-oxo-, 8,8-dioxide], the IC50 lay within 2 to 100 nM.

`Cc1ncn(-c2cc(F)ccc2CNC(=O)c2nc3n(c(=O)c2O)CCS(=O)(=O)C3(C)C)n1` [Example 6, Pyrimido[2,1-c][1,4]thiazine-2-carboxamide, N-[[4-fluoro-2-(3-methyl-1H-1,2,4-triazol-1-yl)phenyl]methyl]-4,6,7,9-tetrahydro-3-hydroxy-9,9-dimethyl-4-oxo-, 8,8-dioxide]: the IC50 lay within 2 to 100 nM.

In the case of `O=C(NCc1ccc(F)cc1)c1nc2n(c(=O)c1O)CCS(=O)(=O)C21CCOCC1` [Example 16, Spiro[4H-pyran-4,9′(4′H)-pyrimido[2,1-c][1,4]thiazine]-2′-carboxamide, N-[(4-fluorophenyl)methyl]-2,3,5,6,6′,7′-hexahydro-3′-hydroxy-4′-oxo-, 8′,8′-dioxide], the IC50 was 2 to 100 nM.

For `Cc1cc(CNC(=O)c2nc3n(c(=O)c2O)CCCS(=O)(=O)C32CCOCC2)ccc1F` [Example 27, Spiro[4H-pyran-4,10′(4′H)-[6H]pyrimido[2,1-c][1,4]thiazepine]-2′-carboxamide, N-[(4-fluoro-3-methylphenyl)methyl]-2,3,5,6,7′,8′-hexahydro-3′-hydroxy-4′-oxo-, 9′,9′-dioxide], the IC50 was in the range of 2 to 100 nM.

For `O=C(NCc1ccc(F)cc1-n1cncn1)c1nc2n(c(=O)c1O)CCS(=O)(=O)C21CCCC1` [Example 13, Spiro[cyclopentane-1,9′(4′H)-pyrimido[2,1-c][1,4]thiazine]-2′-carboxamide, N-[[4-fluoro-2-(1H-1,2,4-triazol-1-yl)phenyl]methyl]-6′,7′-dihydro-3′-hydroxy-4′-oxo-, 8′,8′-dioxide], the IC50 was in the range of 2 to 100 nM.

As to `CC1c2nc(C(=O)NCc3ccc(F)cc3)c(O)c(=O)n2CCS1(=O)=O` (stereo not shown) [Example 3, Pyrimido[2,1-c][1,4]thiazine-2-carboxamide, N-[(4-fluorophenyl)methyl]-4,6,7,9-tetrahydro-3-hydroxy-9-methyl-4-oxo-, 8,8-dioxide], the IC50 was in the range of 2 to 100 nM.

Take `Cc1ncnn1-c1cc(F)ccc1CNC(=O)c1nc2n(c(=O)c1O)CCCS(=O)(=O)C21CCOCC1` [Example 29, Spiro[4H-pyran-4,10′(4′H)-[6H]pyrimido[2,1-c][1,4]thiazepine]-2′-carboxamide, N-[[4-fluoro-2-(5-methyl-1H-1,2,4-triazol-1-yl)phenyl]methyl]-2,3,5,6,7′,8′-hexahydro-3′-hydroxy-4′-oxo-, 9′,9′-dioxide]: the IC50 was in the range of 2 to 100 nM.

On to `CC1SCCCn2c1nc(C(=O)NCc1ccc(F)cc1)c(O)c2=O` (stereo not shown) [Example 20, N-(4-Fluorobenzyl)-3-hydroxy-10-methyl-4-oxo-6,7,8,10-tetrahydro-4H-pyrimido[2,1-c][1,4]thiazepine-2-carboxamide], for which the IC50 lay within 2 to 100 nM.

For the compound `Cc1ncnn1-c1cc(F)ccc1CNC(=O)c1nc2n(c(=O)c1O)CCS(=O)(=O)C2(C)C` [Example 7, Pyrimido[2,1-c][1,4]thiazine-2-carboxamide, N-[[4-fluoro-2-(5-methyl-1H-1,2,4-triazol-1-yl)phenyl]methyl]-4,6,7,9-tetrahydro-3-hydroxy-9,9-dimethyl-4-oxo-8,8-dioxide], the IC50 fell in the range of 2 to 100 nM.

Take `O=C(NCc1ccc(F)cc1)c1nc2n(c(=O)c1O)CCCS(=O)(=O)C21CCCC1` [Example 25, Spiro[cyclopentane-1,10′(4′H)-[6H]pyrimido[2,1-c][1,4]thiazepine]-2′-carboxamide, N-[(4-fluorophenyl)methyl]-7′,8′-dihydro-3′-hydroxy-4′-oxo-, 9′,9′-dioxide]: the IC50 was in the range of 2 to 100 nM.
